Series [1] concerns the target T1, recombinant human secretory phospholipase A2 (Homo sapiens, UniProt P14555).
T1 sequence (P14555 21-144): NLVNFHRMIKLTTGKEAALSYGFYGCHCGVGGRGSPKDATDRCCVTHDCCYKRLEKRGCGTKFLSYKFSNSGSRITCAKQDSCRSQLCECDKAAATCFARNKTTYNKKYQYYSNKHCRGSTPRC
As to the kind of experiment: Inhibition Test of Human Secretory Phospholipase A2 (chromogenic assay). It counts as biochemical. Particulars: sPLA2 50 ng/well, 40° C., 30 minutes, OD 405 nm, 96 well microtiterplate. The text has this:
Test Example: Inhibition Test of Human Secretory Phospholipase A2
In order to identify and evaluate an inhibitor of recombinant human secretory phospholipase A2, the following chromogenic assay is utilized. The assay herein has been applied for high volume screening wherein 96 well microtiterplate is used. A general explanation for such assay is described in “Analysis of Human Synovial Fluid Phospholipase A2 on Short Chain Phosphatidylcholine-Mixed Micelles: Development of a Spectrophotometric Assay Suitable for a Micortiterplate Reader” (Analytical Biochemistry, 204, pp 190-197, 1992 by Laure. J. Reynolds. Lori L. Hughes and Edward A. Dennis: the disclosure of which is incorporated herein for reference.
pH 7.5 (adjusted with NaOH)
pH 4.5 (adjusted with acetic acid)
1 mg of sPLA2 is dissolved in 1 ml of an enzyme buffer. Thereafter, the solution is maintained at 4° C.
In the assay, 5 μl of the solution is diluted with 1995 μl of the reaction buffer to be used.
198 mg of 5,5′-dithiobis-2-[…] (manufactured by Wako Pure Chemicals) is dissolved in 100 ml of H2O
H 7.5 (adjusted with NaOH)
100 mg of racemic 1,2-bis(heptanoylthio)-1,2-dideoxy-sn-glycero-3-phospholylcholine is dissolved in 1 ml of chloroform.
624.9 mg of Triton-X 100 is dissolved in the reaction buffer.
Enzyme Reaction: for 1 Plate of Microtiterplate
1) 0.106 ml of the substrate solution is put in a centrifugal tube, and nitrogen gas is jetted to remove the solvent. 0.54 ml of Triton-X 100 is added thereto, the mixture is stirred, thereafter it is sonified in a bath type sonification to dissolve. To the resulting product are added 17.8 ml of the reaction buffer and 0.46 ml of DTNB, and 0.18 ml each of the admixture is poured to wells of the 96 well microtiterplate.
2) 10 μl of a test compound (or solvent blank) are added in accordance with alignment of plates which has been previously set.
3) Incubation is effected at 40° C. for 15 minutes.
4) 20μl of an enzyme solution (sPLA2) which has been previously diluted (50 ng/well) are added to start reaction (40° C., 30 minutes).
5) Changes in absorbancy for 30 minutes are measured by a plate reader, and inhibition activity was calculated (OD: 405 nm).
6) IC50 was determined by plotting log concentration with respect to inhibition values within 10% to 90% inhibiting range.

By IC50 is commonly meant the concentration at which inhibition is half-maximal. Usually melting point stands for the temperature of the solid-liquid transition.

Regarding `CCc1c(C(=O)C(N)=O)c2c(OCC(=O)O)nc(C3CCCCC3)cn2c1Cc1ccccc1-c1ccccc1` [Compound I-82], the melting point was 200 to 201.5 °C. Also, the IC50 in series [1] is 5 nM.

Compound `COC(=O)COc1nc(C)cn2c(Cc3ccccc3)c(C)c(C(=O)C(N)=O)c12` [Compound I-83] yielded a melting point of 205 to 207 °C. Moreover, the concentration for half-maximal inhibition (IC50) in series [1] amounted to 116 nM.

Take `Cc1cn2c(Cc3ccccc3)c(C)c(C(=O)C(N)=O)c2c(OCC(=O)O)n1` [Compound I-84]: the melting point was 199.5 to 201 °C. Also, the IC50 in series [1] came out at 8 nM.

Regarding `CCc1c(C(=O)C(N)=O)c2c(OCC(=O)OC)nc(C)cn2c1Cc1ccc(C)s1` [Compound I-85], the melting point was 203 to 204 °C. The 50% inhibitory concentration (IC50) in series [1] is 370 nM.

The compound `CCc1c(C(=O)C(N)=O)c2c(OCC(=O)O)nc(C)cn2c1Cc1ccc(C)s1` [Compound I-86] yielded a melting point of 216.5 to 218 °C. Moreover, the IC50 in series [1] is 11 nM.

With `CCc1c(C(=O)C(N)=O)c2c(OCC(=O)OC)nc(C)cn2c1Cc1csc2ccccc12` [Compound I-87], the melting point fell in the range of 186 to 187 °C. For the same compound, in series [1], the IC50 amounted to 129 nM.

With `CCc1c(C(=O)C(N)=O)c2c(OCC(=O)O)nc(C)cn2c1Cc1csc2ccccc12` [Compound I-88], the melting point was in the range of 211 to 213 °C. Further, the half-maximal inhibitory concentration (IC50) in series [1] was found to be 8 nM.

In turn, `CCOC(=O)COc1nc(C)cn2c(Cc3ccc(F)cc3)c(CC)c(C(=O)C(N)=O)c12` [Compound I-89] registered a melting point of 184 to 186 °C. Further, in series [1], the IC50 was found to be 315 nM.

As for `CCOC(=O)COc1nc(C)cn2c(Cc3ccccc3-c3ccc(F)cc3)c(CC)c(C(=O)C(N)=O)c12` [Compound I-90], the melting point was in the range of 172 to 173 °C. The IC50 in series [1] was 38 nM.

For the compound `CCOC(=O)COc1nc(C)cn2c(Cc3ccccc3-c3cccs3)c(CC)c(C(=O)C(N)=O)c12` [Compound I-91], the melting point fell in the range of 160 to 161 °C. Besides, the half-maximal inhibitory concentration (IC50) in series [1] was 48 nM.

Regarding `CCOC(=O)COc1nc(C)cn2c(Cc3ccccc3-c3ccsc3)c(CC)c(C(=O)C(N)=O)c12` [Compound I-92], the melting point lay in the range of 185 to 186 °C. Moreover, in series [1], the IC50 is 76 nM.

Turning to `CCCOC(=O)COc1nc(C)cn2c(Cc3ccc(F)cc3)c(CC)c(C(=O)C(N)=O)c12` [Compound I-93], the melting point lay in the range of 182 to 183 °C. Further, the 50% inhibitory concentration (IC50) in series [1] turned out to be 282 nM.

Consider `CCCCCOC(=O)COc1nc(C)cn2c(Cc3ccc(F)cc3)c(CC)c(C(=O)C(N)=O)c12` [Compound I-94], for which the melting point was in the range of 175 to 176 °C. Besides, the IC50 in series [1] is 650 nM.

In turn, `CCc1c(C(=O)C(N)=O)c2c(OCC(=O)OCCN3CCOCC3)nc(C)cn2c1Cc1ccc(F)cc1` [Compound I-95] returned a melting point of 139 to 140 °C. Further, the IC50 in series [1] was 175 nM.

The values above are taken from US6407104B1, “Pyrrolo[1,2-a]pyrazine spla2 inhibitor” (Shionogi & Co., Ltd., priority 1998, dated 2002).
